Measured values from PubChem BioAssay (NCI).
Values joined by “and” are separate entries in the source; they are usually repeats but may differ in a detail not shown here. Equal entries are not always repeated.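 Exposure lasted 48 hours, with cells grown in 96-well plates and compounds tested at five concentrations. GI50 marks 50% less growth. TGI: concentration producing complete growth inhibition.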

Columns and labels:
Assay in all cases: growth of human tumour cells (NCI), 48 h
BT-549 breast = system: BT-549 breast
A498 renal = system: A498 renal
DMS 114 small cell lung = system: DMS 114 small cell lung
LXFL 529 NSCLC = system: LXFL 529 NSCLC
SK-MEL-5 melanoma = system: SK-MEL-5 melanoma
HL-60(TB) leukemia = system: HL-60(TB) leukemia
RPMI-8226 leukemia = system: RPMI-8226 leukemia
MDA-MB-231 breast = system: MDA-MB-231 breast
SK-MEL-28 melanoma = system: SK-MEL-28 melanoma
K-562 leukemia = system: K-562 leukemia

Structure (SMILES) | TGI (BT-549 breast) [µM] | GI50 (A498 renal) [µM] | TGI (A498 renal) | TGI (DMS 114 small cell lung) [µM] | TGI (LXFL 529 NSCLC) [µM] | GI50 (SK-MEL-5 melanoma) [µM] | GI50 (HL-60(TB) leukemia) [µM] | TGI (HL-60(TB) leukemia) | TGI (RPMI-8226 leukemia) [µM] | TGI (MDA-MB-231 breast) [µM] | TGI (SK-MEL-5 melanoma) [µM] | TGI (SK-MEL-28 melanoma) [µM] | TGI (K-562 leukemia) [µM]
O=c1cc(-c2cccc(Cl)c2)[nH]c2cc3c(cc12)OCO3 | 17.1 | 1.04 | 36.9 µM and 29.6 µM | 4.23 | 2.73 | 0.164 | 0.263 | 7.5 µM and 1.39 µM | > 100 | 11.5 |  |  | 
O=C(c1ccccc1)c1nc2ccc(Cl)cc2cc1C(Br)Br | 1.12 |  | 9.45 µM | 4.02 | 0.77 |  |  | 1.07 µM | 1.18 |  | 2.01 | 0.814 | 3.55
